Experimental data published in ChEMBL document CHEMBL6092215, “A Prostate-Specific Membrane Antigen-Targeting Small Molecule-Drug Conjugate Strategy to Overcome the Hematological Toxicity of Olaparib” (J Med Chem, 2024).
Calls of active or inactive are those of the source. The calls are words filed in the database; no cut-off is given here.

How the values were obtained:
[1] = test system: LNCaP; assay: Antiproliferative activity against human LNCaP cells with high PSMA expression assessed as effect on cell viability incubated for 72 hrs by MTT assay; assay type: functional, cell-based
[2] = test system: CWR22R; assay: Antiproliferative activity against human 22Rv1 cells with high PSMA expression assessed as effect on cell viability incubated for 72 hrs by MTT assay; assay type: functional, cell-based; conditions: 22Rv1, 72 h
[3] = test system: PC-3; assay: Antiproliferative activity against PSMA negative human PC-3 cells assessed as effect on cell viability incubated for 72 hrs by MTT assay; assay type: functional
[4] = Antiproliferative activity against PSMA negative human RWPE-1 cells assessed as effect on cell viability incubated for 72 hrs by MTT assay; assay type: toxicity, cell-based; conditions: RWPE-1 cells (PSMA negative)
[5] = target: Poly [ADP-ribose] polymerase 1 (Homo sapiens, UniProt P09874); assay: Inhibition of PARP1 (unknown origin) by biotinylated NAD+-based luminescence assay
Sequence of Poly [ADP-ribose] polymerase 1 (P09874 whole entry): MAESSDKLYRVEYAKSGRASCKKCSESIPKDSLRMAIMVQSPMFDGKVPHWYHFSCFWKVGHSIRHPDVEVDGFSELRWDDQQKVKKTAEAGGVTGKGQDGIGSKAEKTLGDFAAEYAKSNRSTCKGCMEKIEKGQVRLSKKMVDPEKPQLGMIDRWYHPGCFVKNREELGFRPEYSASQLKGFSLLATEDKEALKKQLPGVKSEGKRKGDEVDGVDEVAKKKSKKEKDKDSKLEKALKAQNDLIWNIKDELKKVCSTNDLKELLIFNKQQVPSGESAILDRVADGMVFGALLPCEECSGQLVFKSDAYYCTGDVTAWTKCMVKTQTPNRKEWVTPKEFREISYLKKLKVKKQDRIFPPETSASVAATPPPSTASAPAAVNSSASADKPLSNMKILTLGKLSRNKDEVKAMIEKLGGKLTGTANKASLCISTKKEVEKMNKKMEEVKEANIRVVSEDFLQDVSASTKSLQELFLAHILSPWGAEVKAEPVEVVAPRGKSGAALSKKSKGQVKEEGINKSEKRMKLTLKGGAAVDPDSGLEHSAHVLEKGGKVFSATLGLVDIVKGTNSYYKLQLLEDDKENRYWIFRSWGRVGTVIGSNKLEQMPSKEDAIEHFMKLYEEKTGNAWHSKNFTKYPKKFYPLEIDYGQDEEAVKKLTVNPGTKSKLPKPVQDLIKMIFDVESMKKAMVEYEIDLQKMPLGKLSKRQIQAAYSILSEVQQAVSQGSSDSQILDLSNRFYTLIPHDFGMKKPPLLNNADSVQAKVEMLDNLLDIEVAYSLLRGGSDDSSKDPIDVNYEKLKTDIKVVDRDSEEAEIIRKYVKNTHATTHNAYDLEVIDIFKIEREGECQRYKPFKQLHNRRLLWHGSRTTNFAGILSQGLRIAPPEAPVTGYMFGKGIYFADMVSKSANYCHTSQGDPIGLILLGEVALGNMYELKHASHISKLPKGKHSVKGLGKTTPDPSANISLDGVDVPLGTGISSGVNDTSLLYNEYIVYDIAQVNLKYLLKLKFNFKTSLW

[6] = test system: CWR22R; assay: Induction of DNA damage in human 22Rv1 cells assessed as increase in number of gamma-H2AX foci incubated for 12 hrs by DAPI staining based immunofluorescence analysis; assay type: functional, cell-based; conditions: dose 50-200 µM
[7] = test system: CWR22R; assay: Induction of apoptosis in human 22Rv1 cells assessed as increase in cleaved caspase-3 expression at 100 uM incubated for 72 hrs by Western blot analysis; assay type: functional, cell-based
[8] = test system: CWR22R; assay: Antiproliferative activity against human 22Rv1 cells assessed as reduction in cell viability at 125 uM in presence of DUPA; assay type: functional, cell-based
[9] = Drug uptake in PSMA positive human 22Rv1 cells at 10 uM measured after 1 to 6 hrs by LC-MS/MS analysis; assay type: ADME, cell-based; conditions: cwr22r, time 1-6 hrs
[10] = Drug uptake in PSMA positive human 22Rv1 cells at 10 uM measured after 1 to 6 hrs in presence of PSMA ligand DUPA by LC-MS/MS analysis; assay type: ADME, cell-based; conditions: cwr22r, time 1-6 hrs
[11] = Half-life in Sprague-Dawley rat at 100 mg/kg, po measured after 24 hrs by UPLC-MS/MS analysis; assay type: ADME, organism-based; conditions: in vivo
[12] = Tmax in Sprague-Dawley rat at 100 mg/kg, po measured after 24 hrs by UPLC-MS/MS analysis; assay type: ADME, organism-based; conditions: in vivo
[13] = Cmax in Sprague-Dawley rat at 100 mg/kg, po measured after 24 hrs by UPLC-MS/MS analysis; assay type: ADME, organism-based; conditions: in vivo
[14] = AUC (0 to t) in Sprague-Dawley rat at 100 mg/kg, po measured after 24 hrs by UPLC-MS/MS analysis; assay type: ADME, organism-based; conditions: in vivo
[15] = AUC (0 to infinity) in Sprague-Dawley rat at 100 mg/kg, po measured after 24 hrs by UPLC-MS/MS analysis; assay type: ADME, organism-based; conditions: in vivo
[16] = Oral bioavailability in Sprague-Dawley rat at 100 mg/kg measured after 24 hrs by UPLC-MS/MS analysis; assay type: ADME, organism-based; conditions: in vivo
[17] = Half-life in Sprague-Dawley rat at 5 mg/kg, iv measured after 24 hrs by UPLC-MS/MS analysis; assay type: ADME, organism-based; conditions: in vivo
[18] = C0 in Sprague-Dawley rat at 5 mg/kg, iv measured after 24 hrs by UPLC-MS/MS analysis; assay type: ADME, organism-based; conditions: in vivo
[19] = Volume of distribution in Sprague-Dawley rat at 5 mg/kg, iv measured after 24 hrs by UPLC-MS/MS analysis; assay type: ADME, organism-based; conditions: in vivo
[20] = Clearance in Sprague-Dawley rat at 5 mg/kg, iv measured after 24 hrs by UPLC-MS/MS analysis; assay type: ADME, organism-based; conditions: in vivo
[21] = AUC (0 to t) in Sprague-Dawley rat at 5 mg/kg, iv measured after 24 hrs by UPLC-MS/MS analysis; assay type: ADME, organism-based; conditions: in vivo
[22] = AUC (0 to infinity) in Sprague-Dawley rat at 5 mg/kg, iv measured after 24 hrs by UPLC-MS/MS analysis; assay type: ADME, organism-based; conditions: in vivo
[23] = Subacute toxicity in male ICR mouse assessed as decrease in body weight at 175 mg/kg, po administered via gavage for 30 days; assay type: organism-based; conditions: in vivo, 720 h, time 30 day
[24] = Subacute toxicity in male ICR mouse assessed as decrease in red blood cells at 175 mg/kg, po administered via gavage for 30 days by blood routine test; assay type: organism-based; conditions: in vivo, 720 h, time 30 day
[25] = Subacute toxicity in male ICR mouse assessed as decrease in hemoglobin at 175 mg/kg, po administered via gavage for 30 days by blood routine test; assay type: organism-based; conditions: in vivo, 720 h, time 30 day
[26] = Subacute toxicity in male ICR mouse assessed as decrease in hematocrit at 175 mg/kg, po administered via gavage for 30 days by blood routine test; assay type: organism-based; conditions: in vivo, 720 h, time 30 day
[27] = Subacute toxicity in male ICR mouse assessed as decrease in WBC at 175 mg/kg, po administered via gavage for 30 days by blood routine test; assay type: organism-based; conditions: in vivo, 720 h, time 30 day
[28] = Subacute toxicity in male ICR mouse assessed as decrease in neutrophils at 175 mg/kg, po administered via gavage for 30 days by blood routine test; assay type: organism-based; conditions: in vivo, 720 h, time 30 day
[29] = Subacute toxicity in male ICR mouse assessed as decrease in lymphocytes at 175 mg/kg, po administered via gavage for 30 days by blood routine test; assay type: organism-based; conditions: in vivo, 720 h, time 30 day
[30] = test system: CWR22R; assay: Antitumor activity against human 22Rv1 cells xenografted in male BALB/c nude mouse at 175 mg/kg administered via gavage; assay type: functional, organism-based
[31] = Toxicity in male BALB/c nude mouse xenografted with human 22Rv1 cells assessed as decrease in body weight at 175 mg/kg administered via gavage; assay type: organism-based; conditions: in vivo, po
[32] = test system: CWR22R; assay: Antitumor activity against human 22Rv1 cells xenografted in male BALB/c nude mouse assessed as tumor growth inhibition at 175 mg/kg administered via gavage relative to control; assay type: functional; conditions: 22Rv1, po, read-out: TGI
[33] = Subacute toxicity in male ICR mouse assessed as decrease in body weight at 195 to 390 mg/kg, po administered via gavage for 30 days; assay type: organism-based; conditions: in vivo, 720 h, dose 195-390 mg/kg, time 30 day
[34] = Subacute toxicity in male ICR mouse assessed as decrease in red blood cells at 195 to 390 mg/kg, po administered via gavage for 30 days by blood routine test; assay type: organism-based; conditions: in vivo, 720 h, dose 195-390 mg/kg, time 30 day
[35] = Subacute toxicity in male ICR mouse assessed as decrease in hemoglobin at 195 to 390 mg/kg, po administered via gavage for 30 days by blood routine test; assay type: organism-based; conditions: in vivo, 720 h, dose 195-390 mg/kg, time 30 day
[36] = Subacute toxicity in male ICR mouse assessed as decrease in hematocrit at 195 to 390 mg/kg, po administered via gavage for 30 days by blood routine test; assay type: organism-based; conditions: in vivo, 720 h, dose 195-390 mg/kg, time 30 day
[37] = Subacute toxicity in male ICR mouse assessed as decrease in WBC at 195 to 390 mg/kg, po administered via gavage for 30 days by blood routine test; assay type: organism-based; conditions: in vivo, 720 h, dose 195-390 mg/kg, time 30 day
[38] = Subacute toxicity in male ICR mouse assessed as decrease in neutrophil at 195 to 390 mg/kg, po administered via gavage for 30 days by blood routine test; assay type: organism-based; conditions: in vivo, 720 h, dose 195-390 mg/kg, time 30 day
[39] = Subacute toxicity in male ICR mouse assessed as decrease in lymphocytes at 195 to 390 mg/kg, po administered via gavage for 30 days by blood routine test; assay type: organism-based; conditions: in vivo, 720 h, dose 195-390 mg/kg, time 30 day
[40] = test system: CWR22R; assay: Antitumor activity against human 22Rv1 cells xenografted in male BALB/c nude mouse administered via gavage; assay type: functional, cell-based; conditions: dose 195-390 mg/kg
[41] = Toxicity in male BALB/c nude mouse xenografted with human 22Rv1 cells assessed as decrease in body weight at 195 to 390 mg/kg administered via gavage; assay type: organism-based; conditions: in vivo, po, dose 195-390 mg/kg
[42] = test system: CWR22R; assay: Antitumor activity against human 22Rv1 cells xenografted in male BALB/c nude mouse assessed as tumor growth inhibition at 100 mg/kg administered via gavage relative to control; assay type: functional; conditions: 22Rv1, po, read-out: TGI
[43] = test system: CWR22R; assay: Antitumor activity against human 22Rv1 cells xenografted in male BALB/c nude mouse assessed as tumor growth inhibition at 195 to 390 mg/kg administered via gavage relative to control; assay type: functional; conditions: dose 195-390 mg/kg
[44] = test system: CWR22R; assay: Antitumor activity against human 22Rv1 cells xenografted in male BALB/c nude mouse assessed as tumor growth inhibition at 25 mg/kg administered via gavage relative to control; assay type: functional; conditions: 22Rv1, po, read-out: TGI
[45] = test system: CWR22R; assay: Antitumor activity against human 22Rv1 cells xenografted in male BALB/c nude mouse assessed as tumor growth inhibition at 50 mg/kg administered via gavage relative to control; assay type: functional; conditions: 22Rv1, po, read-out: TGI
[46] = Toxicity in male BALB/c nude mouse xenografted with human 22Rv1 cells assessed as decrease in body weight at 25 to 100 mg/kg administered via gavage; assay type: organism-based; conditions: in vivo, po, dose 25-100 mg/kg
[47] = Toxicity in male BALB/c nude mouse xenografted with human 22Rv1 cells assessed as decrease in WBC at 25 to 100 mg/kg administered via gavage by routine blood test; assay type: organism-based; conditions: in vivo, po, dose 25-100 mg/kg
[48] = Toxicity in male BALB/c nude mouse xenografted with human 22Rv1 cells assessed as decrease in neutrophils at 25 to 100 mg/kg administered via gavage by routine blood test; assay type: organism-based; conditions: in vivo, po, dose 25-100 mg/kg
[49] = Toxicity in male BALB/c nude mouse xenografted with human 22Rv1 cells assessed as decrease in lymphocytes at 25 to 100 mg/kg administered via gavage by routine blood test; assay type: organism-based; conditions: in vivo, po, dose 25-100 mg/kg
[50] = Toxicity in male BALB/c nude mouse xenografted with human 22Rv1 cells assessed as decrease in RBC at 25 to 100 mg/kg administered via gavage by routine blood test; assay type: organism-based; conditions: in vivo, po, dose 25-100 mg/kg

IC50 [1] [µM] | IC50 [5] [µM] | Drug uptake [9] | Drug uptake [10] | half-life [11] [min] | Tmax [12] [min] | Cmax [13] [ng/mL] | AUC(0-t) at 24 h [14] [ng·h/mL] | AUC(0-inf) [15] [ng·h/mL] | bioavailability [16] [%] | half-life [17] [min] | C0 at 24 h [18] [ng/mL] | Vd [19] [L/kg] | clearance [20] [mL/min/kg] | SMILES | IC50 [2] [µM] | CC50 [3] [µM] | CC50 at 72 h [4] [µM] | Activity [6] | Activity [7] | Activity [8] | also measured
93.9 | 0.0019 | Active | Not_active | 54.8 | 60 | 5260 | 16300 | 16500 | 11 | 22.7 | 12800 | 0.391 | 12 | O=C(O)CC[C@H](NC(=O)N[C@@H](CCCCNC(=O)CCC(=O)N1CCN(C(=O)c2cc(Cc3n[nH]c(=O)c4ccccc34)ccc2F)CC1)C(=O)O)C(=O)O | 133 | > 1000 | > 1000 | Dose-dependent-effect | Active; Similar To Olaparib-Treated Group | Not active; Drug Mode Of Action Appears To Be Via Binding To Psma Receptor | AUC(0-t) at 24 h [21]: 7300 ng·h/mL; AUC(0-inf) [22]: 7460 ng·h/mL; Activity [23]: Non-toxic; Activity [24]: Non-toxic; Activity [25]: Non-toxic; Activity [26]: Non-toxic; Activity [27]: Non-toxic; Activity [28]: Non-toxic; Activity [29]: Non-toxic; Activity [30]: Active; Activity [31]: Non-toxic; inhibition in vivo at 175 mg/kg [32]: 69%
80.6 | 0.001 | Active | Not_active | 61 | 60 | 7310 | 27400 | 27800 | 18.6 | 21.7 | 13500 | 0.383 | 12.2 | O=C(O)CC[C@H](NC(=O)N[C@@H](CCCCNC(=O)CCC(=O)NC1(C(=O)N2CCN(C(=O)c3cc(Cc4n[nH]c(=O)c5ccccc45)ccc3F)CC2)CC1)C(=O)O)C(=O)O | 84.5 | > 1000 | > 1000 | Dose-dependent-effect | Active; Similar To Olaparib-Treated Group | Not active; Drug Mode Of Action Appears To Be Via Binding To Psma Receptor | AUC(0-t) at 24 h [21]: 7310 ng·h/mL; AUC(0-inf) [22]: 7460 ng·h/mL; Activity [33]: Non-toxic; Activity [34]: Non-toxic; Activity [35]: Non-toxic; Activity [36]: Non-toxic; Activity [37]: Non-toxic; Activity [38]: Non-toxic; Activity [39]: Non-toxic; Activity [40]: Dose-dependent-effect; Activity [41]: Non-toxic; inhibition in vivo at 100 mg/kg [42]: 70%; TGI [43]: 73%; inhibition in vivo at 25 mg/kg [44]: 52%; inhibition in vivo at 50 mg/kg [45]: 65%; Activity [46]: Non-toxic; Activity [47]: Non-toxic; Activity [48]: Non-toxic; Activity [49]: Non-toxic; Activity [50]: Non-toxic
